Experimental data reported in paper PMC6522930, “Design, synthesis and biological activity evaluation of a new class of 2,4-thiazolidinedione compounds as insulin enhancers” (Journal of Enzyme Inhibition and Medicinal Chemistry, 2019).

Assays:
PPARγ = molecular target: T1, PPARγ (Homo sapiens, UniProt P37231); test: In vitro activation of PPARγ (cells containing PPAR, EC50); type: cell-based; conditions: n ≥ 8; 24 h; read-out: EC50 ± SD PPARγ
T1 construct: expressed in transfected cells
T1 sequence (P37231 1-505): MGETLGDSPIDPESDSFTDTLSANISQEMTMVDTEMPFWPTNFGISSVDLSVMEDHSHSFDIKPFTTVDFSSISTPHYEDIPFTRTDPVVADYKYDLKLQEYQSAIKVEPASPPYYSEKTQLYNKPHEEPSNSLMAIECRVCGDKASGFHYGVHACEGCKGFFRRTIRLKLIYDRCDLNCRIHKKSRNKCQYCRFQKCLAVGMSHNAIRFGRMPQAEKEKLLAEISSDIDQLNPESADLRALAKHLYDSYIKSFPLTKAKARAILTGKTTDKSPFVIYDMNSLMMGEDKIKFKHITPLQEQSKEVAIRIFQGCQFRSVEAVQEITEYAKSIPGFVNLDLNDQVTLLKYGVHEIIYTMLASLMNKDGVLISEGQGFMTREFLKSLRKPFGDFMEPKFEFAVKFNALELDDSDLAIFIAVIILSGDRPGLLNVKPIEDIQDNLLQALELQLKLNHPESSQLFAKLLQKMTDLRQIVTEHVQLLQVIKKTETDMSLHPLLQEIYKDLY
Description: (§1) According to the literature, the cells containing PPAR (α, β and γ) were obtained and transfected into 96-well plates the day before for cells culture. Transfection was performed according to the instructions of human PPAR enzyme-linked immunoassay. […] After 24 h, the drugs were added, and 20 μl of MTT was added to each well for another 6 h, and the cell liquid was collected by removing the culture medium, and 150 μl of DMSO was added to each hole. And the absorbance value (A) of each hole was measured under the wavelength of 460 nm.

PPARα = molecular target: T2, PPARα (Homo sapiens, UniProt Q07869); test: In vitro activation of PPARα (cells containing PPAR, EC50); type: cell-based; conditions: n ≥ 8; 24 h; read-out: EC50 ± SD PPARα
T2 construct: expressed in transfected cells
T2 sequence (Q07869 1-468): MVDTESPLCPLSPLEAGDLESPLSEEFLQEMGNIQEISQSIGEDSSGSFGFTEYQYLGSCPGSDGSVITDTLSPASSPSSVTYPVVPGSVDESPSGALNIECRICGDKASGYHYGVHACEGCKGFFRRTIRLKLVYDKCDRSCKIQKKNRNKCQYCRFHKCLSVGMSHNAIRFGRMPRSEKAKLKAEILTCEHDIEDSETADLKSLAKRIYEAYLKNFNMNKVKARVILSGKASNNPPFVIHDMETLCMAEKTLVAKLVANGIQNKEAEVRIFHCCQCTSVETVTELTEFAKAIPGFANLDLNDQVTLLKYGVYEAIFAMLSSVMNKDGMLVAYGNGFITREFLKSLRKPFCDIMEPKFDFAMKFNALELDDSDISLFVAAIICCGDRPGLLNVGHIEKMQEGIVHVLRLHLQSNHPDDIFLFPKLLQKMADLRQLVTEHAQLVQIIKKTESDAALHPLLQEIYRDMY
Description: as §1

[1] = Lipid–water partition coefficient (log p); type: physicochemical
Source text: (§2) Drug in vitro experiment was one of the basic contents to evaluate drugs activity, and it was a necessary approach to research drugs. Drugs’ efficacy was often affected by some physical and chemical properties of compounds, such as lipid–water partition coefficient (log p), and dissociation degree (pKa). […] In Table 1, we could find that target compounds were fat-soluble. The fat-soluble compounds were favourable for drugs absorption, and drugs were easy to enter the cells. […] The pKa will affect the absorption and delivery of the drugs, different environmental (acid and alkalinity) medicine may be different, sometimes exists in the form of ions, sometimes exists in the form of molecules. Usually in the form of ion drugs has no effect. Therefore, it was necessary to study the dissociation degree (pKa) of drugs to study the pharmacodynamics. […] After the physical and chemical properties were studied, the biological activity was studied. […] After that, the target compounds 6a, 6e, 6f, 6g and 6i had good biological activity and were preliminarily screened out for further study on PPARγ receptor agonist activity (Figure 5).

[2] = Dissociation degree (pKa); type: physicochemical
Source text: as §2

healthy mice [3] = test: Oral glucose tolerance test; type: in vivo; conditions: for Blood glucose levels 1 h / Blood glucose levels 2 h / Blood glucose levels 0 h: 10 mg kg^−1 d^−1 oral for 10 d; for Blood glucose levels 1 h: 1 h after sugar load; for Blood glucose levels 2 h: 2 h after sugar load; for Blood glucose levels 0 h: fasted 12 h, before sugar load; for Effect in glucose tolerance test (in words): 10 mg kg^−1 d^−1 oral, 10 d
Description: In vivo experiments, glucose tolerance test, insulin tolerance test, cell survival experiment and acute toxicity were used as the test indicators (Tables 2, [3] and [4]). In Table 2, we chose dose 10 mg kg^−1 d^−1 and used oral administration. […] The mice were given the drug for 10 d, blood was collected from the tail vein of the mice before and after the sugar load for 1 h and 2 h, and the blood glucose level of the mice before and after the sugar load was measured by the glucometer.
(§3) (1) Glucose tolerance test: The healthy mice (20 ± 2 g) were selected. After 1 week of acclimation, mice with no body surface damage, good general condition and flexible reaction were selected for the experiment. The test compounds were dissolved with DMSO, and were given a dose volume of 0.2 ml 10 g^−1, and a dose of 10 mg kg^−1, and given by gavage (oral) once a day. […] The mice were given the drug for 10 d, and after the last dose, the mice fasted for 12 h. The next day, blood was collected from the tail vein of the mice before and after the sugar load for 1 h and 2 h, and the blood glucose level of the mice before and after the sugar load was measured by the glucometer. […] The 12 h of fasting after the last administration, blood was taken from the orbital venous plexus (used to measure the blood glucose level after fasting). Each group was immediately given a subcutaneous injection of 0.2 μg kg^−1 of insulin. After 1 h and 2 h of injection, blood was taken again. (3) Cell survival experiment: The HUVEC cells were inoculated on the 96-well plate at the initial concentration of 3 × 10^3 cells/holes, and 100 μl RPMI 1640 medium were added to each hole. At 5% CO2 and 37 °C cell cultivation in 24 h, every pore solution in different concentrations. […] And determine the hole under 460 nm wavelength absorbance value (A).

HUVEC cells = test: Cell survival experiment (cytotoxicity); type: cell-based; conditions: for Cytotoxic effect (in words): 10^−3–10^−2 mol L^−1; for Cell survival rate: HUVEC cells
Description: as §3

healthy mice [4] = test: Insulin tolerance test (blood glucose under insulin load); type: in vivo; conditions: for Effect in insulin tolerance test (in words): 10 mg kg^−1 d^−1; for Blood glucose levels 1 h / Blood glucose levels 2 h / Blood glucose levels 0 h: 10 mg kg^−1 d^−1 for 15 d; for Blood glucose levels 1 h: 1 h after s.c. insulin 0.2 μg kg^−1; for Blood glucose levels 2 h: 2 h after s.c. insulin 0.2 μg kg^−1; for Blood glucose levels 0 h: fasted 12 h, before insulin
Description: as §3

[5] = Acute toxicity test (LD50); type: in vivo; conditions: oral administration; n ≥ 3

EC50 (PPARα) | Structure (SMILES) | EC50 (PPARγ) | logP [1] | pKa [2] | Blood glucose levels 1 h (healthy mice [3]) | Blood glucose levels 2 h (healthy mice [3]) | Blood glucose levels 0 h (healthy mice [3]) | Effect in glucose tolerance test (in words) (healthy mice [3]) | Cytotoxic effect (in words) (HUVEC cells) | Cell survival rate (HUVEC cells; 10^−2 mol l^−1) | Cell survival rate (HUVEC cells; 10^−3 mol l^−1) | Cell survival rate (HUVEC cells; 10^−4 mol l^−1) | Cell survival rate (HUVEC cells; 10^−5 mol l^−1) | Cell survival rate (HUVEC cells; 10^−6 mol l^−1) | Effect in insulin tolerance test (in words) (healthy mice [4]) | Blood glucose levels 1 h (healthy mice [4]) | Blood glucose levels 2 h (healthy mice [4]) | Blood glucose levels 0 h (healthy mice [4]) | LD50 ± SD [5]
13000 ± 1560 nM | O=C1NC(=O)C(Cc2ccc(OCCNC(=O)c3ccccn3)cc2)S1 (stereo not drawn) [Compound 6c, N-(2-(4-((2,4-dioxothiazolidin-5-yl)methyl)phenoxy)ethyl) picolinamide] | 450 ± 210 nM | 1.92 | 10 | – | – | – | – | – | – | – | – | – | – | – | – | – | – | –
– | Cc1ccc(C(=O)NCCOc2ccc(CC3SC(=O)NC3=O)cc2)cc1 (stereo not drawn) [Compound 6e, N-(2-(4-((2,4-dioxothiazolidin-5-yl)methyl)phenoxy)ethyl)-4-methylbenzamide] | 30 ± 10 nM | 3.26 | 9.77 | 6.003 ± 1.876 mmol/L | 2.953 ± 0.876 mmol/L | 3.312 ± 0.301 mmol/L | good resistance activation to glucose | no obvious cytotoxic effect | 94.3 ± 1.02% | 99.1 ± 0.08% | 100% | 100% | 100% | good resistance activation to insulin | 1.762 ± 0.453 mmol/L | 2.463 ± 1.211 mmol/L | 5.411 ± 1.002 mmol/L | 2451.2 ± 1.24 mg/kg
– | Cc1ccc(C(=O)NCCOc2ccc(CC3SC(=O)NC3=O)nc2)cc1 (stereo not drawn) [Compound 6f, N-(2-((6-((2,4-dioxothiazolidin-5-yl)methyl)pyridin-3-yl)oxy)ethyl)-4-methylbenzamide] | 100 ± 100 nM | 2.56 | 9.65 | 6.651 ± 2.413 mmol/L | 4.121 ± 1.922 mmol/L | 3.216 ± 0.315 mmol/L | good resistance activation to glucose | no obvious cytotoxic effect | 89.6 ± 1.34% | 98.3 ± 0.45% | 99.2 ± 0.31% | 99.8 ± 0.09% | 100% | good resistance activation to insulin | 1.903 ± 0.611 mmol/L | 2.602 ± 1.143 mmol/L | 5.714 ± 1.465 mmol/L | 2013.6 ± 1.43 mg/kg
– | Cc1ccc(C(=O)NCCOc2ccc(CC3SC(=O)NC3=O)cc2)nc1 (stereo not drawn) [Compound 6g, N-(2-(4-((2,4-dioxothiazolidin-5-yl)methyl)phenoxy)ethyl)-5-methylpicolinamide] | 80 ± 30 nM | 2.83 | 9.45 | 6.445 ± 2.220 mmol/L | 3.677 ± 1.730 mmol/L | 3.112 ± 0.279 mmol/L | good resistance activation to glucose | no obvious cytotoxic effect | 90.5 ± 1.54% | 98.6 ± 0.44% | 99.8 ± 0.09% | 100% | 100% | good resistance activation to insulin | 1.843 ± 0.544 mmol/L | 2.566 ± 1.224 mmol/L | 5.613 ± 1.246 mmol/L | 2138.8 ± 1.36 mg/kg
10600 ± 1860 nM | Cc1ccc(C(=O)NCCOc2ccc(CC3SC(=O)NC3=O)nc2)nc1 (stereo not drawn) [Compound 6h, N-(2-((6-((2,4-dioxothiazolidin-5-yl)methyl)pyridin-3-yl)oxy)ethyl)-5-methylpicolinamide] | 280 ± 130 nM | 2.01 | 9.41 | – | – | – | – | – | – | – | – | – | – | – | – | – | – | –
– | O=C1NC(=O)C(Cc2ccc(OCCNC(=O)c3ccc(O)cc3)cc2)S1 (stereo not drawn) [Compound 6i, N-(2-(4-((2,4-dioxothiazolidin-5-yl)methyl)phenoxy)ethyl)-4-hydroxybenzamide] | 70 ± 20 nM | 2.8 | 9.03 | 6.401 ± 2.112 mmol/L | 3.265 ± 1.236 mmol/L | 3.218 ± 0.317 mmol/L | good resistance activation to glucose | no obvious cytotoxic effect | 92.1 ± 1.43% | 98.8 ± 0.29% | 99.9 ± 0.02% | 100% | 100% | good resistance activation to insulin | 1.792 ± 0.541 mmol/L | 2.501 ± 1.025 mmol/L | 5.592 ± 1.134 mmol/L | 2268.9 ± 1.25 mg/kg
– | O=C1NC(=O)C(Cc2ccc(OCCNC(=O)c3ccc(O)cn3)cc2)S1 (stereo not drawn) [Compound 6k, N-(2-(4-((2,4-dioxothiazolidin-5-yl)methyl)phenoxy)ethyl)-5-hydroxypicolinamide] | 210 ± 110 nM | 2.32 | 8.66 | – | – | – | – | – | – | – | – | – | – | – | – | – | – | –
– | CN(CCOc1ccc(CC2SC(=O)NC2=O)cc1)c1ccccn1 (stereo not drawn) [Rosiglitazone, reference compound] | – | – | – | 6.351 ± 2.004 mmol/L | 3.654 ± 1.232 mmol/L | 3.265 ± 0.345 mmol/L | – | – | – | – | – | – | – | – | – | – | – | 2246.1 ± 1.56 mg/kg
